According to patent US20250235543A1, “MODIFIED PROTEINS AND PROTEIN DEGRADERS” (Cullgen (Shanghai), Inc., priority 2021, published 2025):

Assays:
[1] = test system: cyclin D1, cyclin D2, cyclin D3; experiment: Immunoblot of cyclin D protein levels in Calu-1 (and BT-549) cells; format: cell-based; settings: for cyclin D downregulation effect after pre-treatment with MG-132, MLN4924 or TAK-243: proteasome, cullin E3 ligase or UAE inhibitor pre-treatment; for DC50 / reduction of cyclin D1, cyclin D2, and cyclin D3 protein levels: immunoblot, dose range; for DC50: 16 hours treatment; for reduction of cyclin D1, cyclin D2, and cyclin D3 protein levels: Calu-1 / BT-549 cells, 16 hours
Method: Specific exemplary heterobifunctional compounds were characterized in Calu-1, BT-549 and other cells. Cells that express cyclin D1-3 and CDK4/6 proteins were treated with heterobifunctional compounds disclosed herein at indicated concentrations for 16 hours. Cells were collected, lysed and subject to immunoblotting using an antibody specific to cyclin D1, cyclin D2, cyclin D3, CDK4, CDK6 or phosphorylated R^b proteins. Tubulin or GAPDH was used as the loading control. DMSO treatment was used as the negative control.
In a time-course study, Calu-1 cells were treated with 500 nM CPD-002, or 100 nM CPD-031 for indicated period of time prior to immunoblotting (FIG. 4A-4B).
(§1) The heterobifunctional compound-mediated degradation was dependent on the ubiquitin-proteasome system and cullin E3 ligase. […] In addition, DDB1 E3 ligase was critical for the degrader-induced cyclin D downregulation. Depletion of DDB1 using CRISPR-Cas9 technology attenuated the cyclin D degradation induced by CPD-031 (FIG. 5C).
To verify that heterobifunctional compound-mediated degradation is dependent on the binding to CDK4-cyclin D complex, we designed three negative control compounds, CPD-042, CPD-049 and CPD-380, which are derived from CPD-002 CPD-031 and CPD-343, respectively. These three control compounds bear the same DDB1 ligand and linker as their corresponding active heterobifunctional compounds but with modified warheads to impair the binding of the control compounds to CDK4. […] However, the binding to CDK4 is not sufficient for cyclin D degradation. Two cereblon (CRBN)-recruiting reference heterobifunctional compounds, CP-10 (Su, J Med Chem, 2019; CAS No.: 2366268-80-4) and BSJ-03-123 (Brand, Cell Chem Biol, 2019; CAS No.: 2361493-16-3) were analyzed in Calu-1 cells.

Cal-62 = experiment: Cell viability assay, Cal-62; format: cell-based; settings: Homo sapiens, 72 h; Cal-62, TC, 3 days; read-out: Cellular Anti-proliferation activity (IC50)
Method: (§2) Cells were treated with CDK4/6 inhibitors palbociclib, ribociclib, or abemaciclib, or heterobifunctional compounds CPD-002 or CPD-031 following a 9-point serial dilution for 3 days.
(§3) Cells were seeded at a density of 2,000-5,000 cells per well in 96-well assay plates and treated with test compounds following a 10-point serial dilution for 3-6 days. Cell viability was determined using the CellTiter-Lumi assay kit according to the manufacturer's instructions. The dose-response curves were determined and IC50 values were calculated using the GraphPad Prism software following a nonlinear regression (least squares fit) method. Data presented was mean±standard deviation (SD) unless otherwise indicated.

CDK4 = molecular target: T1, CDK4 (Homo sapiens, UniProt P11802); experiment: CDK4 percentage degradation in Calu-1 cells (immunoblotting); format: cell-based; settings: Calu-1 cells, 200 nM, 16 hours; read-out: CDK4 Degradation (200 nM)
T1 construct: endogenous in cells; host or cells: Calu-1
T1 sequence (P11802 2-303 limits assumed): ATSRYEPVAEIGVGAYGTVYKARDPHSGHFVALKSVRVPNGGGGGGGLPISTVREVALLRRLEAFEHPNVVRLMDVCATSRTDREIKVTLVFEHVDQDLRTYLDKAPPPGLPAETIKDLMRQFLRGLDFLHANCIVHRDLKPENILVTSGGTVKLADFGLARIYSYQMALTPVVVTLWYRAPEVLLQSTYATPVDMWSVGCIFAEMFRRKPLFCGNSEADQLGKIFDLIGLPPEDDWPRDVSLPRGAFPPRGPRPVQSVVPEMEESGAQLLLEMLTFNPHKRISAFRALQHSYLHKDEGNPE
T1 sequence (P24385 whole entry partner): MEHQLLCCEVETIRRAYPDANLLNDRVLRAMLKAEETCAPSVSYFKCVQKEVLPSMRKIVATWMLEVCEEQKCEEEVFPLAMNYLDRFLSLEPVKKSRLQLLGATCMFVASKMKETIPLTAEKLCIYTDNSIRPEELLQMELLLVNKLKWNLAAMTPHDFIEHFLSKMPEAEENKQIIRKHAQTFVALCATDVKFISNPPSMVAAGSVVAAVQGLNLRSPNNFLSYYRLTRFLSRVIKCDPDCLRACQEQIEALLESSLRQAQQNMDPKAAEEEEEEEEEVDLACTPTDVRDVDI
T1 sequence (Q16531 2-1140 limits assumed, further chain): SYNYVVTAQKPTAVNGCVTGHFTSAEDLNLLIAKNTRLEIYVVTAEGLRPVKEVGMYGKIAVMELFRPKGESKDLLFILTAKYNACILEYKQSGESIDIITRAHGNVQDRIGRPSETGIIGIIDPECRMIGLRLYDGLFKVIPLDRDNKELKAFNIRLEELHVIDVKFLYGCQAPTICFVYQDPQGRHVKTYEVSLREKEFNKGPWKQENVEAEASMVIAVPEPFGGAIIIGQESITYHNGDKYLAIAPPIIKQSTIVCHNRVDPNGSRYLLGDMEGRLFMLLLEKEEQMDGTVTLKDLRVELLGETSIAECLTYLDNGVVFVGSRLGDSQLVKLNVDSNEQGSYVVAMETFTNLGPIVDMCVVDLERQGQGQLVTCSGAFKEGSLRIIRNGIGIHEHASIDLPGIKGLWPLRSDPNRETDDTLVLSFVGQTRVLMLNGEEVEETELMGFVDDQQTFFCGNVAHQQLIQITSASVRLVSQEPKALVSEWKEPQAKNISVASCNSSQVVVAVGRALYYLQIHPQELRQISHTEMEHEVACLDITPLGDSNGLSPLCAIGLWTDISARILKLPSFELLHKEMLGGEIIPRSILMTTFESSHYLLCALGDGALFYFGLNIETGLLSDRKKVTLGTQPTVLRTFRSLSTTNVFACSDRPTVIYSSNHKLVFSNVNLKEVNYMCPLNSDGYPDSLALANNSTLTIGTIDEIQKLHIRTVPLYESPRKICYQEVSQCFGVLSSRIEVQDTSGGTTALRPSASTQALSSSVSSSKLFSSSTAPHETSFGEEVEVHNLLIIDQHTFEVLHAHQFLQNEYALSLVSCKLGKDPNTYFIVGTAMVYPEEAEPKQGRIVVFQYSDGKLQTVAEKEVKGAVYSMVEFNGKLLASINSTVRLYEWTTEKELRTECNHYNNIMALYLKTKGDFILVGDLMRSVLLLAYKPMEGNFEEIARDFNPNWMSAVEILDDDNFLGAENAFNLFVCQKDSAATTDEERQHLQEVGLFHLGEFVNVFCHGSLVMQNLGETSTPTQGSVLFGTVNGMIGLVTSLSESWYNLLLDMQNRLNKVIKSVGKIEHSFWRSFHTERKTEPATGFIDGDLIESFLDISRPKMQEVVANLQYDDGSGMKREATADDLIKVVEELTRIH
Outline: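 Cultured cells were rinsed once in cold PBS and lysed in cold RIPA buffer containing protease and phosphatase inhibitors, with gentle agitation at 4° C. for 30 min. Lysates were centrifuged at 13,000 rpm for 10 min at 4° C., and protein was quantified by BCA. Samples were then separated by SDS-PAGE, detected with ECL, and the CDK4 bands quantified in Image Lab.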

[2] = test system: Rb phosphorylation, cleaved caspase-3; experiment: Immunoblotting of downstream Rb phosphorylation and cleaved caspase-3 in Calu-1 or BT-549 cells; format: cell-based; settings: 16 hours
Method: Calu-1 (FIG. 2A) or BT-549 (FIG. 2B) cells were treated with CPD-002, CPD-004, or palbociclib at indicated concentrations for 16 hours.
Cultured cells were washed with cold PBS once and lysed in cold RIPA buffer supplemented with protease inhibitors and phosphatase inhibitors (Beyotime Biotechnology). The solutions were then incubated at 4° C. for 30 min with gentle agitation to fully lysed cells. Cell lysates were centrifuged at 13,000 rpm for 10 min at 4° C. and pellets were discarded. Total protein concentrations in the lysates were determined following BCA assays (Beyotime Biotechnology). Cell lysates were mixed with Laemmli loading buffer and heated at 99° C. for 5 min. Proteins were resolved on SDS-PAGE and visualized using Western ECL Substrate kits on a ChemiDoc MP Imaging system (Bio-Rad). Protein bands were quantitated using the Image Lab software provided by Bio-Rad.

NCI-H522 = experiment: Cell viability assay, NCI-H522; format: cell-based; settings: Homo sapiens, 72 h; NCI-H522, NSCLC, 3 days; read-out: Cellular Anti-proliferation activity (IC50)
Method: as §2, §3

MDA-MB-453 = experiment: Cell viability assay, MDA-MB-453; format: cell-based; settings: Homo sapiens, 72 h; MDA-MB-453, TNBC, 3 days; read-out: Cellular Anti-proliferation activity (IC50)
Method: as §2, §3

MDA-MB-468 = experiment: Cell viability assay, MDA-MB-468; format: cell-based; settings: Homo sapiens, 72 h; MDA-MB-468, TNBC, 3 days; read-out: Cellular Anti-proliferation activity (IC50)
Method: as §2, §3

cyclin D1 [3] = experiment: Cyclin D1 percentage degradation in Calu-1 cells (immunoblotting); format: cell-based; settings: 200 nM, 16 hours
Outline: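 Cells were rinsed once in cold PBS and lysed in cold RIPA buffer containing protease and phosphatase inhibitors, with gentle agitation at 4° C. for 30 min. Lysates were spun at 13,000 rpm for 10 min at 4° C., protein was measured by BCA, and samples were boiled in Laemmli buffer at 99° C. for 5 min before SDS-PAGE immunoblotting.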

MDA-MB-157 = experiment: Cell viability assay, MDA-MB-157; format: cell-based; settings: Homo sapiens, 72 h; MDA-MB-157, TNBC, 3 days; read-out: Cellular Anti-proliferation activity (IC50)
Method: as §2, §3

cyclin D1 [4] = experiment: Immunoblot of cyclin D1 in parental or DDB1 knockout Hs578T cells; format: cell-based; settings: parental vs DDB1 knockout Hs578T cells, 4 hours
Method: FIG. 5 show immunoblots of cyclin D1, cyclin D2 and cyclin D3 proteins expressed by Calu-1 cells after treatment with heterobifunctional compounds CPD-002 and CPD-004 (A), or CPD-031 (B) in the presence or absence of MLN4924 (MLN), MG-132 (MG), or TAK-243 (TAK), and immunoblots of cyclin D1 proteins expressed in parental or DDB1 knockout Hs578T cells after treatment with heterobifunctional compound CPD-031 at indicated concentrations for 4 hours (C).
as §1

DDB1 = molecular target: T2, DDB1 (Homo sapiens, UniProt Q16531, D705G/DEL396-460/DEL463-701/I704S/T703N); experiment: Surface plasmon resonance (SPR) binding of heterobifunctional compounds to DDB1; settings: purified DDB1ΔBPB immobilized on CM5 chip, multi-cycle kinetic format, steady state model, read-out: binding affinities (Kd) to DDB1
T2 construct: His6 (N, cleaved yes); TEV protease cleavage site (N, cleaved yes); made in house; host or cells: SF9 insect cells, Bac-to-Bac baculovirus, pFastBacHTB vector
T2 sequence (Q16531 other isoform, or with tags, fused parts or gaps DEL396-460/DEL463-701/T703N/I704S/D705G): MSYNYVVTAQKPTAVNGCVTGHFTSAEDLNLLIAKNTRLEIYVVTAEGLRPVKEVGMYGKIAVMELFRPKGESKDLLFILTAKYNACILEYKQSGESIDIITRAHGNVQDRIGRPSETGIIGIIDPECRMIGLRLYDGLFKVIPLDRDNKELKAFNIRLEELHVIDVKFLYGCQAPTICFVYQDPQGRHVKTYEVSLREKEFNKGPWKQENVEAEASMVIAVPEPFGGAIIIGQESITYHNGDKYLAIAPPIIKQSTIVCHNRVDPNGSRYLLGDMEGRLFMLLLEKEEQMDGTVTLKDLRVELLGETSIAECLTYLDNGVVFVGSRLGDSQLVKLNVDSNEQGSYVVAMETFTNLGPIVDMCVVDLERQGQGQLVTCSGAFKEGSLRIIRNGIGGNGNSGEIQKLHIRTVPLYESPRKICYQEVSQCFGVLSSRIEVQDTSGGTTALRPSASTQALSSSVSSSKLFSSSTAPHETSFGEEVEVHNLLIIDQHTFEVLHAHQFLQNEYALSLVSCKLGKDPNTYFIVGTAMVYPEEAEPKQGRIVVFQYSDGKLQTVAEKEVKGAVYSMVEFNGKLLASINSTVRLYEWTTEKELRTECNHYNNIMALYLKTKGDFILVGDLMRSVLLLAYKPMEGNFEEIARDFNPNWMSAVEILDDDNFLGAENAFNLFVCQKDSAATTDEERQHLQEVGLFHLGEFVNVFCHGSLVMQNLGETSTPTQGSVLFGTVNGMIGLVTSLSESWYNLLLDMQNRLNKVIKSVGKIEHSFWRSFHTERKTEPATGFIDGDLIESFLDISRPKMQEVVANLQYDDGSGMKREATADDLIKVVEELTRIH
Method: To determine whether the addition of linkers and target binders to the DDB1 ligands affected the binding to DDB1 E3 ligase, the binding affinities of heterobifunctional compounds to DDB1 was evaluated using a surface plasmon resonance (SPR) assay. Purified DDB1ΔBPB proteins were immobilized on a CM5 sensor chip and a dose range of compound solutions were injected in multi-cycle kinetic format. Data was fit to steady state model and gave equivalent dissociation constants (Kd).

[5] = time-course, Calu-1 cells, 500 nM CPD-002

DC50 [1] | inhibition at 0.2 µM (CDK4) | IC50 (NCI-H522) | IC50 (MDA-MB-453) | IC50 (MDA-MB-468) | IC50 (MDA-MB-157) | Kd (DDB1) | SMILES | cyclin D downregulation effect after pre-treatment with MG-132, MLN4924 or TAK-243 ([1]; Calu-1 cells) | reduction of cyclin D1, cyclin D2, and cyclin D3 protein levels [1] | time to complete degradation of cyclin D proteins [1, 5] | time to significant degradation of cyclin D proteins [1, 5] | IC50 (Cal-62) | downstream Rb phosphorylation and cleaved caspase-3 [2] | CyclinD1 Degradation (200 nM) (cyclin D1 [3]) | cyclin D3 versus cyclin D1 and D2 degradation, time-course ([1]; Calu-1 cells, 100 nM CPD-031) | cyclin D degradation after depletion of DDB1 (CRISPR-Cas9) (cyclin D1 [4])
< 0.05 µM | 50 to 80% | 0.638 µM | 0.741 µM | 1.48 µM | 0.151 µM |  | CC(=O)c1c(C)c2cnc(Nc3ccc(N4CCN(CC(=O)NCCOCCOCCOCCOCCOCCNc5ccc(C(=O)Nc6ncc(C)s6)c(C)c5)CC4)cn3)nc2n(C2CCCC2)c1=O [CPD-002, 4-((1-(4-(6-((6-Acetyl-8-cyclopentyl-5-methyl-7-oxo-7,8-dihydropyrido[2,3-d]pyrimidin-2-yl)amino)pyridin-3-yl)piperazin-1-yl)-2-oxo-6,9,12,15,18-pentaoxa-3-azaicosan-20-yl)amino)-2-methyl-N-(5-methylthiazol-2-yl)benzamide] | totally diminished | particularly effective | ≤ 2 h | ≤ 0.5 h | 0.05 µM | inhibited downstream Rb phosphorylation and induced cleaved caspase-3 in a concentration-dependent manner | A (protein percentage degradation >=80%) |  | 
< 0.02 µM | > 80% | 0.155 µM | 0.3 µM |  | 0.028 µM | 5.7 µM | CC(=O)c1c(C)c2cnc(Nc3ccc(N4CCN(CC(=O)NCCOCCOCCOCCOCCOCCNc5ccc(C(=O)Nc6nc(C)c(C)s6)c(C)c5)CC4)cn3)nc2n(C2CCCC2)c1=O [CPD-031, 4-((1-(4-(6-((6-Acetyl-8-cyclopentyl-5-methyl-7-oxo-7,8-dihydropyrido[2,3-d]pyrimidin-2-yl)amino)pyridin-3-yl)piperazin-1-yl)-2-oxo-6,9,12,15,18-pentaoxa-3-azaicosan-20-yl)amino)-N-(4,5-dimethylthiazol-2-yl)-2-methylbenzamide] | totally diminished | particularly effective |  |  | 0.005 µM |  | A (protein percentage degradation >=80%) | slower cyclin D3 degradation compared to cyclin D1 and D2 degradation | attenuated
